The source of these data is ChEMBL document CHEMBL1124976, “An initial three-component pharmacophore for specific serotonin-3 receptor ligands” (J Med Chem, 1990).

In assay [1] the target is Serotonin 3 (5-HT3) receptor (Rattus norvegicus) (UniProt P35563+Q9JJ16). Nature of the assay: Tested for inhibition of Bezold-Jarisch (B-J) reflex mediated by 5-hydroxytryptamine 3 receptor in rats after intravenous administration (2.0 ug/kg). It is filed as functional, organism-based.
In assay [2] the target is T1, 5-hydroxytryptamine receptor 3B (Mus musculus, UniProt Q9JHJ5).
T1 sequence (Q9JHJ5 whole entry): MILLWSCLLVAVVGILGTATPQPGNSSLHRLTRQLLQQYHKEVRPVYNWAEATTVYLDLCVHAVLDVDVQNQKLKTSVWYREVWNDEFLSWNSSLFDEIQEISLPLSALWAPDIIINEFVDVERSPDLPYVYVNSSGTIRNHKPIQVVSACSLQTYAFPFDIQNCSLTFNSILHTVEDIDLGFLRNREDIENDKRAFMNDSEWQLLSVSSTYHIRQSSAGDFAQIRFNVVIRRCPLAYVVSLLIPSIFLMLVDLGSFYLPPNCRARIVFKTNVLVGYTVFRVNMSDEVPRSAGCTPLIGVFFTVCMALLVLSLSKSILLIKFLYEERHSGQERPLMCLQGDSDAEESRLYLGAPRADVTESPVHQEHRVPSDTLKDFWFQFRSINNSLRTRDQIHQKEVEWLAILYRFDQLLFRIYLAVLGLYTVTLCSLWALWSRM
The assay is described as follows: In vitro binding affinity for the 5-hydroxytryptamine 3 receptor was determined with NG-108-15 mouse neuroblastoma-glioma cells.

The target in assay [3] is 5-hydroxytryptamine receptor 3A (Mus musculus) (UniProt P23979). The assay is described as follows: In vitro binding affinity for the 5-hydroxytryptamine 3 receptor was determined with NG-108-15 mouse neuroblastoma-glioma cells.
5-hydroxytryptamine receptor 3A (Mus musculus), sequence (P23979 whole entry, looked up): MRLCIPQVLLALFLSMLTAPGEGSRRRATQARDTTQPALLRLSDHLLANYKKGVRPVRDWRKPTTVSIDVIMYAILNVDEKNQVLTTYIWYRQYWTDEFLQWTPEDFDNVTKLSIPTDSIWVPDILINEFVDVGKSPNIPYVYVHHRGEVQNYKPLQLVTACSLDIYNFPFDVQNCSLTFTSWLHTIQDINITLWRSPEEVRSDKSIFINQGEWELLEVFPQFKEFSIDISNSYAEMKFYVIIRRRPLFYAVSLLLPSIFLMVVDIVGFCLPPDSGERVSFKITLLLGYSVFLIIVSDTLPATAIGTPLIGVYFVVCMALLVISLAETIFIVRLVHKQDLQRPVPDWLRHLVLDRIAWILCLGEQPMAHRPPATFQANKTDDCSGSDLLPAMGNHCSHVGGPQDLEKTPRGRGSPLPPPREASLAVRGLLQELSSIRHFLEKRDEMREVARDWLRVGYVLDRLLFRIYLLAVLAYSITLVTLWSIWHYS

Usually inhibition stands for the percentage by which the read-out fell short of the control. A low value points to a weak effect. `COc1cc(N)c(Cl)cc1C(=O)NC1CN2CCC1CC2` (stereo not drawn) yielded an inhibition in assay [1] of 84%.

For orientation: Ki means the equilibrium dissociation constant of an inhibitor or competing ligand from its target. A high value points to a looser hold on the target. In turn, `N=C(N)NCc1ccccn1` registered a Ki in assay [2] of 82 nM. In turn, `Cc1csc(CNC(=N)N)n1` had a Ki in assay [2] of 116 nM.

Take `Cc1nc[nH]c1Cc1nc(-c2c[nH]c3ccccc23)cs1`: the Ki in assay [2] was determined as 10 nM. `CN(Cc1nc(-c2c[nH]c3ccccc23)cs1)C(=N)N` returned a Ki in assay [2] of over 1 nM. On to `N=C(N)NCc1nc(-c2c[nH]c3ccccc23)cs1`, for which the Ki in assay [3] was 3.3 nM. Besides, the inhibition in assay [1] was determined as 51%. Consider `Cc1nccn1CC1CCc2c(c3ccccc3n2C)C1=O` (stereo not drawn), for which the inhibition in assay [1] stood at 43%.
